The subject of data set [1] is Trypanosoma brucei rhodesiense. The data set can be described thus: Inhibition of ornithine decarboxylase in Trypanosoma brucei rhodesiense STIB900 assessed as intracellular ornithine level at 50 uM after 20 mins (reference value: 4 +/- 1 uM). The class given is cell-based.
Data set [2] has as its system Trypanosoma brucei rhodesiense. Nature of the data set: Reduction of GSH level in Trypanosoma brucei rhodesiense at 50 uM after 40 mins by UHPLC-MS/MS analysis. The format is functional, organism-based.
Data set [3] relates to Trypanosoma brucei rhodesiense. The data set can be described thus: Induction of CYN-thiol adduct formation in Trypanosoma brucei rhodesiense assessed as extracellular CYN level at 50 uM after 20 mins by UHPLC-MS/MS analysis. The format is organism-based. Conditions: in vivo.
Data set [4] concerns Trypanosoma brucei rhodesiense. The data set can be described thus: Induction of CYN-thiol adduct formation in Trypanosoma brucei rhodesiense assessed as extracellular CYN level at 50 uM after 10 mins by UHPLC-MS/MS analysis. Conditions: in vivo. The class given is organism-based.
In data set [5] the test system is Trypanosoma brucei rhodesiense. The data set can be described thus: Induction of CYN-thiol adduct formation in Trypanosoma brucei rhodesiense assessed as extracellular CYN level at 50 uM after 30 mins by UHPLC-MS/MS analysis. The class given is organism-based. Conditions: in vivo, 0.5 h.
For data set [6], the system named is Trypanosoma brucei. Nature of the data set: Inhibition of trypanothione synthatase in Trypanosoma brucei using GSH as substrate at 200 uM.
The subject of a further data set is Trypanosoma cruzi. Nature of the data set: Inhibition of trypanothione reductase in Trypanosoma cruzi using T(S)2 as substrate at 100 to 200 uM after 240 mins by spectrophotometry in presence of NADPH.
Data set [7] has as its system Trypanosoma brucei. Nature of the data set: Antitrypanosomal activity against Trypanosoma brucei assessed as intermediate phenotype at 50 uM after 5 to 10 mins by Giemsa staining-based light microscopy. The class given is functional, organism-based.
Data set [8] concerns Trypanosoma brucei. Nature of the data set: Irreversible inhibition of trypanothione synthatase in Trypanosoma brucei using GSH as substrate at 200 uM after 240 mins.
The test system of data set [9] is Trypanosoma brucei rhodesiense. The data set can be described thus: Induction of CYN-thiol adduct formation in Trypanosoma brucei rhodesiense assessed as GS-CYN monoadduct level at 50 uM after 5 mins by UHPLC-MS/MS analysis. The format is organism-based. Conditions: in vivo.
Data set [10] has as its system Trypanosoma brucei rhodesiense. Nature of the data set: Induction of CYN-thiol adduct formation in Trypanosoma brucei rhodesiense assessed as extracellular CYN level at 50 uM after 5 mins by UHPLC-MS/MS analysis. The format is organism-based. Conditions: in vivo.
Data set [11] concerns Trypanosoma brucei rhodesiense. The data set can be described thus: Reduction of T(SH)2 level in Trypanosoma brucei rhodesiense at 50 uM after 40 mins by UHPLC-MS/MS analysis. The class given is functional, organism-based.
Data set [12] has as its system Trypanosoma brucei rhodesiense. The data set can be described thus: Induction of CYN-thiol adduct formation in Trypanosoma brucei rhodesiense assessed as intracellular CYN level at 50 uM after 5 mins by UHPLC-MS/MS analysis. The format is organism-based. Conditions: in vivo.
Data set [13] has as its system Trypanosoma brucei rhodesiense. Nature of the data set: Induction of CYN-thiol adduct formation in Trypanosoma brucei rhodesiense assessed as extracellular CYN level at 50 uM after 40 mins by UHPLC-MS/MS analysis. The format is organism-based. Conditions: in vivo.
Data set [14] in a line: Induction of GS-CYN monoadduct formation by HPLC-MS analysis. The class given is physicochemical.
Data set [15] relates to Trypanosoma brucei. The data set can be described thus: Antitrypanosomal activity against Trypanosoma brucei assessed as stumpy phenotype at 50 uM after 40 mins by Giemsa staining-based light microscopy. The format is functional, organism-based.
For data set [16], the system named is Trypanosoma brucei rhodesiense. The data set can be described thus: Induction of CYN-thiol adduct formation in Trypanosoma brucei rhodesiense assessed as T(S-CYN)2 bisadduct level at 50 uM after 5 mins by UHPLC-MS/MS analysis. The format is organism-based. Conditions: in vivo.
Data set [17] can be described thus: Induction of T(SH)2-CYN adduct formation by HPLC-MS analysis. The format is physicochemical.

Structures are written as SMILES. Activity calls are given as the source filed them. No cut-off for these calls is given here.

With `NCCCC(N)(C(=O)O)C(F)F` (centres undefined), in data set [1], the INH came to 48 µM.
On to `C=C(CO)C(=O)O[C@H]1CC(=C)[C@@H]2C[C@H](O)C(=C)[C@@H]2[C@H]2OC(=O)C(=C)[C@@H]21` [CYNAROPICRIN], for which the outcome (in [2]; in the data set with Trypanosoma brucei [7]; in data set [11]; in the data set on Trypanosoma brucei [15]) was Active. Moreover, the Activity in data set [3] amounted to 35.8 µM; in data set [4] it was 39.6 µM; in data set [5], 33.3 µM; in [9], 42 µM; in [10], 34.9 µM; in [12], 23 µM. For the same compound, the Activity is 37.1 µM in [13], “Active” in data set [14], 49 µM in data set [16] and “Active” in data set [17]. Also, the INH in data set [1] turned out to be 50 µM. Besides, the inhibition entry with Trypanosoma brucei [6] and in the data set on Trypanosoma cruzi was “inactive” in each case. Also, in the data set on Trypanosoma brucei [8], the inhibition (as a rule, the drop in the measured response relative to a control, in per cent) was determined as 51%.

The record behind these values is ChEMBL document CHEMBL2439993, “Cynaropicrin targets the trypanothione redox system in Trypanosoma brucei” (Bioorg Med Chem, 2013).
